Earlier results, collected in patent US20070037707A1, “Plant growth regulator formulations” (HELENA HOLDING COMPANY, priority 2005, published 2007).

Columns and labels:
[1] = not given; remark: listed apart in the source
organically grown cotton = conditions: used alone; compared with conventional chemistry like (2-chloroethyl) phosphonic acid

O=P(O)(O)CCCl [(2-chloroethyl)phosphonic acid]
pH of the pure product (according to the MSDS sheet for a formulated product): 1.7 | pH range in which stable (at higher pH decomposes and liberates ethylene, Pesticide Manual): below 3.5 | water solubility [1]: water soluble

O=C(O)CC(O)(CC(=O)O)C(=O)O [Citric acid]
effectiveness as cotton defoliant (organically grown cotton): not as effective
